Measurements from publication PMC11111408, “Concurrent inhibition of oncogenic and wild-type RAS-GTP for cancer therapy” (Nature, 2024).
Read-outs that look alike come from different tables or passages of the source.

Tested on: panel of 183 cancer cell lines
Assay: Cell panel of 183 cancer cell lines, viability (CTG) at Crown Bioscience
Type: cell-based
Conditions: Homo sapiens
Description: The panel consisted of cell lines with any substitution at position 12 of KRAS, NRAS or HRAS (KRAS(G12X), NRAS(G12X), HRAS(G12X)); substitutions in KRAS, NRAS or HRAS at any position other than 12, 13 and 61 (KRAS(other/VUS), NRAS(other/VUS), HRAS(other/VUS)); other oncogenic mutations in the RAS pathway (ABL1, ALK, ARAF, BRAF, CBL, EGFR, ERBB2, ERBB3, ERBB4, ERRFI1, FGFR1, FGFR2, FGFR3, FGFR4, FLT3, HRAS, IGF1R, JAK2, KIT, MAP2K1, MAP2K2, MAPK1, MET, NF1, NRAS, NTRK1, NTRK2, NTRK3, PDGFRA, PTPN11, RAC1, RAF1, RASA1, RET, RIT1, ROS1 and SOS1); and no oncogenic mutations in the RAS pathway. […] Cells were incubated for 120 h, and cell viability was determined using the CellTiter-Glo Luminescent Cell Viability Assay (CTG) (Promega, G7572) according to the manufacturer’s instructions.

With `CCn1c(-c2cc(N3CCN(C4CC4)CC3)cnc2[C@H](C)OC)c2c3cc(ccc31)-c1csc(n1)C[C@H](NC(=O)[C@H]1[C@@H]3COC[C@@H]31)C(=O)N1CCC[C@H](N1)C(=O)OCC(C)(C)C2` [RMC-7977] the EC50 (JHH-2, read-out: RMC-7977 EC50 (M), JHH2, ROS1 fusion, Liver) was 5.37e-09 M, the EC50 (KARPAS-299, read-out: RMC-7977 EC50 (M), KARPAS299, ALK fusion, Blood/lymphoma) was 9.47e-08 M and the EC50 (KATO III, read-out: RMC-7977 EC50 (M), KATOIII, RAS pathway WT, Stomach) was 1.48e-08 M. For the same molecule, the EC50 (KHOS/NP, read-out: RMC-7977 EC50 (M), KHOSNP, KRAS A59T, Bone) was 1.02e-09 M, the EC50 (KM 12L4, read-out: RMC-7977 EC50 (M), KM12L4, NTRK1 fusion, Large intestine/Colorectum) was 5.14e-09 M and the EC50 (KRAS^G12X mutant cell lines, read-out: median EC50) was 2.4e-09 M. For the same molecule, the EC50 (KYSE-150, read-out: RMC-7977 EC50 (M), KYSE150, ERBB3 mut, HN/Esophagus) was 5.92e-09 M, the EC50 (KYSE-270, KYSE270, RTKMUT/fusion, read-out: EC50) was 5.99e-09 M and the EC50 (KYSE-270, read-out: RMC-7977 EC50 (M), KYSE270, EGFR mut, HN/Esophagus) was 5.99e-09 M. It also gave an EC50 (KYSE-410, read-out: RMC-7977 EC50 (M), KYSE410, KRAS G12C, HN/Esophagus) of 4.07e-09 M, an EC50 (LC-2-ad, read-out: RMC-7977 EC50 (M), LC2AD, RET fusion, Lung) of 5.15e-09 M and an EC50 (LCLC-97TM1, read-out: RMC-7977 EC50 (M), LCLC97TM1, KRAS G12V, Lung) of 3.47e-10 M. The EC50 (LCLC-103H, read-out: RMC-7977 EC50 (M), LCLC103H, NF1 LOF, Lung) was 3.67e-07 M, the EC50 (LN-229, read-out: RMC-7977 EC50 (M), LN229, PTPN11 mut, Brain&Nerves) was 6.69e-09 M and the EC50 (LS174T, read-out: RMC-7977 EC50 (M), LS174T, KRAS G12D, Large intestine/Colorectum) was 2.24e-08 M. The EC50 (LS180, read-out: RMC-7977 EC50 (M), LS180, KRAS G12D, Large intestine/Colorectum) was 1.62e-08 M, the EC50 (LS-123, read-out: RMC-7977 EC50 (M), LS123, KRAS G12S, Large intestine/Colorectum) was 1.29e-09 M and the EC50 (LS-513, read-out: RMC-7977 EC50 (M), LS513, KRAS G12D, Large intestine/Colorectum) was 1.2e-09 M. For the same molecule, the EC50 (LS-1034, read-out: RMC-7977 EC50 (M), LS1034, KRAS A146T, Large intestine/Colorectum) was 2.51e-08 M, the EC50 (LoVo, read-out: RMC-7977 EC50 (M), LOVO, KRAS G13D, Large intestine/Colorectum) was 5.62e-08 M and the EC50 (MCF7, read-out: RMC-7977 EC50 (M), MCF7, RAS pathway WT, Breast) was > 1e-06 M. The EC50 (MES-SA, read-out: RMC-7977 EC50 (M), MESSA, RAS pathway WT, Uterus) was > 1e-06 M, the EC50 (MFE-296, read-out: RMC-7977 EC50 (M), MFE296, RAS pathway WT, Uterus) was > 1e-06 M and the EC50 (MIA PaCa-2, read-out: RMC-7977 EC50 (M), MIAPACA2, KRAS G12C, Lung) was 4.27e-09 M. For the same molecule, the EC50 (MKN-1, read-out: RMC-7977 EC50 (M), MKN1, RAS pathway WT, Stomach) was 4.87e-08 M, the EC50 (MKN-45, read-out: RMC-7977 EC50 (M), MKN45, MET amp, Stomach) was 8.64e-09 M and the EC50 (MeWo, read-out: RMC-7977 EC50 (M), MEWO, NF1 LOF, Skin) was 4.86e-09 M. For the same molecule, the EC50 (NCI-H23, read-out: RMC-7977 EC50 (M), NCIH23, KRAS G12C, Lung) was 8.51e-10 M, the EC50 (NCI-H358, read-out: RMC-7977 EC50 (M), NCIH358, KRAS G12C, Lung) was 6.31e-10 M and the EC50 (NCI-H441, read-out: RMC-7977 EC50 (M), NCIH441, KRAS G12V, Lung) was 3.89e-10 M. It also gave an EC50 (NCI-H460, read-out: RMC-7977 EC50 (M), NCIH460, KRAS Q61H, Lung) of 6.17e-09 M, an EC50 (NCI-H508, read-out: RMC-7977 EC50 (M), NCIH508, BRAF mut other, Large intestine/Colorectum) of 1.21e-07 M and an EC50 (NCI-H520, read-out: RMC-7977 EC50 (M), NCIH520, RAS pathway WT, Lung) of 2.85e-08 M. It also gave an EC50 (NCI-H716, read-out: RMC-7977 EC50 (M), NCIH716, KRAS R97I, Large intestine/Colorectum) of 2.75e-09 M, an EC50 (NCI-H727, read-out: RMC-7977 EC50 (M), NCIH727, KRAS G12V, Lung) of 7.24e-10 M and an EC50 (NCI-H747, read-out: RMC-7977 EC50 (M), NCIH747, KRAS G13D, Large intestine/Colorectum) of 1.82e-09 M. The EC50 (NCI-H1155, read-out: RMC-7977 EC50 (M), NCIH1155, KRAS Q61H, Lung) was > 1e-06 M, the EC50 (NCI-H1299, read-out: RMC-7977 EC50 (M), NCIH1299, NRAS Q61K, Lung) was 1.78e-09 M and the EC50 (NCI-H1373, read-out: RMC-7977 EC50 (M), NCIH1373, KRAS G12C, Lung) was 1.78e-09 M. For the same molecule, the EC50 (NCI-H1395, read-out: RMC-7977 EC50 (M), NCIH1395, BRAF mut other, Lung) was > 1e-06 M, the EC50 (NCI-H1581, read-out: RMC-7977 EC50 (M), NCIH1581, RAS pathway WT, Lung) was 5.55e-08 M and the EC50 (NCI-H1650, read-out: RMC-7977 EC50 (M), NCIH1650, EGFR mut, Lung) was 4.04e-08 M. It also gave an EC50 (NCI-H1666, read-out: RMC-7977 EC50 (M), NCIH1666, BRAF mut other, Lung) of 8.2e-09 M, an EC50 (NCI-H1792, read-out: RMC-7977 EC50 (M), NCIH1792, KRAS G12C, Lung) of 1.91e-09 M and an EC50 (NCI-H1838, read-out: RMC-7977 EC50 (M), NCIH1838, NF1 LOF, Lung) of 8.76e-09 M. It also gave an EC50 (NCI-H1915, read-out: RMC-7977 EC50 (M), NCIH1915, HRAS Q61L, Lung) of 1.62e-08 M, an EC50 (NCI-H1944, read-out: RMC-7977 EC50 (M), NCIH1944, KRAS G13D, Lung) of 3.16e-08 M and an EC50 (NCI-H1975, read-out: RMC-7977 EC50 (M), NCIH1975, EGFR mut, Lung) of 4.07e-09 M. The EC50 (NCI-H1993, read-out: RMC-7977 EC50 (M), NCIH1993, MET amp, Lung) was 4.57e-09 M, the EC50 (NCI-H2009, read-out: RMC-7977 EC50 (M), NCIH2009, KRAS G12A, Lung) was 5.75e-09 M and the EC50 (NCI-H2087, read-out: RMC-7977 EC50 (M), NCIH2087, NRAS Q61K, Lung) was 5.89e-10 M. It also gave an EC50 (NCI-H2110, read-out: RMC-7977 EC50 (M), NCIH2110, PTPN11 mut, Lung) of 7.95e-09 M, an EC50 (NCI-H2122, read-out: RMC-7977 EC50 (M), NCIH2122, KRAS G12C, Lung) of 9.33e-10 M and an EC50 (NCI-H2172, read-out: RMC-7977 EC50 (M), NCIH2172, RAS pathway WT, Lung) of 4.73e-07 M. The EC50 (NCI-H2228, read-out: RMC-7977 EC50 (M), NCIH2228, ALK fusion, Lung) was 1.41e-08 M, the EC50 (NCI-H3122, read-out: RMC-7977 EC50 (M), NCIH3122, ALK fusion, Lung) was 4.62e-09 M and the EC50 (NCI-H3255, read-out: RMC-7977 EC50 (M), NCIH3255, EGFR mut, Lung) was 6.28e-09 M. The EC50 (NF1^LOF cell lines, read-out: median EC50) was 3.25e-08 M, the EC50 (NRAS and HRAS mutant cell lines, read-out: median EC50) was 6.76e-09 M and the EC50 (NUGC-4, read-out: RMC-7977 EC50 (M), NUGC4, NF1 LOF, Stomach) was 3.16e-09 M.
